Results as given in US20100119458A1, “Compositions Containing Metal Oxide Particles and Their Use” (Spago Imaging AB, priority 2007, published 2010).

Assay: MRI measurements of relaxation rates and relaxivities
Type: physicochemical
Text: where ρ=spin density, TE=echo time and TR=repetition time. Contrast agents that are paramagnetic are used to improve the resolution in the images. They have effects on both T1 and T2 but some agents have predominant effects on either T1 or T2. […] Gadolinium (III+) has a predominant effect on T1 and therefore has been used a positive contrast agent (increased MR signal). Iron (III+) has a predominant effect on T2 and has therefore been used as a negative contrast agent (decreased MR signal). The relaxation rate (1/Ti, i=1,2 for hydrogen) observed is proportional to the concentration C of a contrast agent used, i.e.
1/Ti(observed)=1/Ti(inherent)+riC
where 1/Ti (observed) is the relaxation rate in the presence of the contrast agent, 1/Ti (inherent) is the inherent tissue relaxation rate, and the proportionality constant ri is called the relaxivity constant for the contrast agent concerned. See Engström et al (Magn Reson Mater Phy 19 (2006) 180-186 and WO 2006031190 (Uvdal et al) and references cited therein.
15 MRI measurements: See Engström et al., Magn Reson Mater Phy, 19 (2006) 180-186.

O=C([O-])CN(CCN(CC(=O)[O-])CC(=O)O)CCN(CC(=O)[O-])CC(=O)O.[Gd+3] [Gd^3+-DTPA]
1/T1 (1 mM) (relaxation rate at 1 mM): 0.005 ms^−1 | 1/T2 (relaxation rate, stated in words): lower values
